# Measured values published in the supplement of paper PMC11451515.
# Tested on: NOMO1
# Test: cell viability relative to DMSO control; higher = less cytotoxic
# Settings: 48 h
# Procedure, shortened: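 Leukemia cells (NOMO1 or SEM, 500 cells/well; P12-Ichikawa, 1000 cells/well) were seeded in 5 μl in 1536-well plates after at least four passages of adaptation to each medium. They received library compounds in DMSO by pin dosing, 11 threefold points from 47 μM to 0.79 nM. Luminescence with CellTiter-Glo One was read after 48 h at 37°C. Viability is stated per plate relative to DMSO wells, with cell-free wells as background.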
# [1] = HPLM + 10% dialyzed FBS, 0.000781 µM
# [2] = HPLM + 10% dialyzed FBS, 0.00234 µM
# [3] = HPLM + 10% dialyzed FBS, 0.00702 µM
# [4] = HPLM + 10% dialyzed FBS, 0.0211 µM
# [5] = HPLM + 10% dialyzed FBS, 0.0632 µM
# [6] = HPLM + 10% dialyzed FBS, 0.19 µM
# [7] = HPLM + 10% dialyzed FBS, 0.569 µM
# [8] = HPLM + 10% dialyzed FBS, 1.71 µM
# [9] = HPLM + 10% dialyzed FBS, 5.12 µM
# [10] = HPLM + 10% dialyzed FBS, 15.4 µM
# [11] = HPLM + 10% dialyzed FBS, 46.1 µM
# [12] = RPMI 5 mM glucose + 10% FBS, 0.000781 µM
# [13] = RPMI 5 mM glucose + 10% FBS, 0.00234 µM
# [14] = RPMI 5 mM glucose + 10% FBS, 0.00702 µM
# [15] = RPMI 5 mM glucose + 10% FBS, 0.0211 µM
# [16] = RPMI 5 mM glucose + 10% FBS, 0.0632 µM
# [17] = RPMI 5 mM glucose + 10% FBS, 0.19 µM
# [18] = RPMI 5 mM glucose + 10% FBS, 0.569 µM
# [19] = RPMI 5 mM glucose + 10% FBS, 1.71 µM
# [20] = RPMI 5 mM glucose + 10% FBS, 5.12 µM
# [21] = RPMI 5 mM glucose + 10% FBS, 15.4 µM
# [22] = RPMI 5 mM glucose + 10% FBS, 46.1 µM
# [23] = RPMI 5 mM glucose + 10% dialyzed FBS, 0.000781 µM
# [24] = RPMI 5 mM glucose + 10% dialyzed FBS, 0.00234 µM
# [25] = RPMI 5 mM glucose + 10% dialyzed FBS, 0.00702 µM
# [26] = RPMI 5 mM glucose + 10% dialyzed FBS, 0.0211 µM
# [27] = RPMI 5 mM glucose + 10% dialyzed FBS, 0.0632 µM
# [28] = RPMI 5 mM glucose + 10% dialyzed FBS, 0.19 µM
# [29] = RPMI 5 mM glucose + 10% dialyzed FBS, 0.569 µM
# [30] = RPMI 5 mM glucose + 10% dialyzed FBS, 1.71 µM
# [31] = RPMI 5 mM glucose + 10% dialyzed FBS, 5.12 µM
# [32] = RPMI 5 mM glucose + 10% dialyzed FBS, 15.4 µM
# [33] = RPMI 5 mM glucose + 10% dialyzed FBS, 46.1 µM
Structure (SMILES),cell viability [1] [%],cell viability [2] [%],cell viability [3] [%],cell viability [4] [%],cell viability [5] [%],cell viability [6] [%],cell viability [7] [%],cell viability [8] [%],cell viability [9] [%],cell viability [10] [%],cell viability [11] [%],cell viability [12] [%],cell viability [13] [%],cell viability [14] [%],cell viability [15] [%],cell viability [16] [%],cell viability [17] [%],cell viability [18] [%],cell viability [19] [%],cell viability [20] [%],cell viability [21] [%],cell viability [22] [%],cell viability [23] [%],cell viability [24] [%],cell viability [25] [%],cell viability [26] [%],cell viability [27] [%],cell viability [28] [%],cell viability [29] [%],cell viability [30] [%],cell viability [31] [%],cell viability [32] [%],cell viability [33] [%]
COc1cc2nc(N3CCN(C(=O)c4ccco4)CC3)nc(N)c2cc1OC,77.8,103,93.7,97,98.3,105,105,92.8,91.8,43,5.27,72.1,78.4,81.6,83.9,87.5,91.9,82.2,85.1,90.7,95.9,4.8,72,83.6,82.1,80.5,90,92.2,95.2,98.2,80.4,88.4,4.29
CC[C@@H](C)[C@H](NC(=O)[C@H](CC1CCCCC1)NC(=O)c1ccno1)C(=O)N1CCC2(CCc3ccccc32)CC1,85.9,90.6,86.1,78.9,108,97.3,75.9,66.1,79.2,81.7,69.9,80.1,88.6,81.1,79.9,77.1,78.3,89.1,81.9,84.6,74.4,72.2,84,85.4,84,77.9,87.6,82.4,76.2,69.8,82.6,73.7,83.2
CO[C@H]1C[C@H]2OC[C@@]2(OC(C)=O)[C@H]3[C@H](OC(=O)C4=CC=CC=C4)[C@]5(O)C[C@H](OC(=O)[C@H](O)[C@@H](NC(=O)OC(C)(C)C)C6=CC=CC=C6)/C(=C(/[C@@H](OC)C(=O)[C@]13C)C5(C)C)C,75.9,46,28.5,25.8,19.6,19.9,19.3,18.8,27.7,19.9,7.15,68.2,79.6,86.1,14.6,10.7,13.3,11.9,12.6,14.9,11,4.22,64.3,81,82.7,19,14.9,13.8,13.7,13.7,17.5,16.8,7.39
CC/C(=C(\c1ccccc1)c1ccc(OCCN(C)C)cc1)c1ccccc1,95,122,107,99.5,119,113,113,92.4,111,92.5,49.1,94.8,102,102,115,103,101,94.1,99,96.1,105,76.7,93.1,99.2,104,103,115,110,114,99.8,117,81,34.7
CN1CCN(c2cc(C(=O)Nc3ccc4c(c3)-c3c(c(C(N)=O)nn3-c3ccc(F)cc3)CC4)c(Cl)cn2)CC1,123,106,108,113,114,127,113,103,99.4,85.9,1.35,108,102,111,109,109,107,112,106,109,97.4,2.41,116,108,121,102,117,107,93.4,100,99.9,102,2.16
CCc1nc(C(N)=O)c(Nc2ccc(N3CCC(N4CCN(C)CC4)CC3)c(OC)c2)nc1NC1CCOCC1,,,,,,,,,,,,99.1,103,109,124,104,112,103,93.7,64.2,55.8,43.1,124,112,101,123,147,99.9,77.9,78.7,57.5,38.1,33.3
CC(=O)[C@H]1CC[C@H]2[C@@H]3C/C=C4/C[C@@H](O)CC[C@]4(C)[C@H]3CC[C@]12C,129,121,125,115,131,129,138,123,119,104,108,121,113,119,111,116,117,109,121,110,111,119,121,118,139,128,129,114,132,121,118,116,97.7
c1cc(N[C@@H]2CCNC2)nc(-c2cnc3ccc(-c4cn[nH]c4)cn23)c1,133,119,124,137,134,139,127,128,132,102,91.9,116,126,124,133,137,125,120,125,128,111,100,,,,,,,,,,,
